The results in this text go back to patent US10844044B2 (Vanderbilt University, priority 2018, dated 2020).

Read-outs that look alike come from different tables or passages of the source.

Assay [1] relates to MV4:11 human cancer cell lines. The assay can be described thus: Anti-proliferative activity, CellTiter-Glo viability assay, 7 day protocol. To be noted: MV4:11 cells, 7 day incubation, read-out: GI50 on cellular proliferation of MV4:11 human cancer cell lines. Format: cell-based. The method in brief:
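Luminescent CellTiter-Glo readout after 7-day compound exposure of MV4:11 cells plated at 3600 cells/ml (final DMSO 0.1%). GI50 derived from three biological × three technical replicates, reported as mean ± S.E.M.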

The target in a further assay is WDR5 (Homo sapiens (Human), UniProt P61964). The experiment in a line: TR-FRET binding assay (displacement of 10mer-Thr-FAM probe from WDR5). To be noted: read-out: Ki for Inhibition of WDR5 by TR-FRET assay.
The mark [2] stands for this setting: TR-FRET, 10mer-Thr-FAM probe, WDR5-His tag 2 nM, pH 7.0.

Consider `CCOc1c(C(=O)N[C@H](c2ccc(F)c(C)c2)C2CC2)cc(Cn2cc(F)ccc2=N)cc1-c1cn(C)nc1C(F)(F)F` [Example 349, (S)—N-(Cyclopropyl(4-fluoro-3-methylphenyl)methyl)-2-ethoxy-5-((5-fluoro-2-iminopyridin-1(2H)-yl)methyl)-3-(1-methyl-3-(trifluoromethyl)-1H-pyrazol-4-yl)benzamide], for which the GI50 in assay [1] (Homo sapiens, 168 h) is less than 0.1 µM. For the same compound, on WDR5, the Ki was less than 0.0001 µM.

On to `Cc1cc([C@@H](NC(=O)c2cc(Cn3cccc(F)c3=N)cc(-c3cccnc3C(F)(F)F)c2)C2CC2)ccc1F` [Example 350, (S)—N-(Cyclopropyl(4-fluoro-3-methylphenyl)methyl)-3-((3-fluoro-2-iminopyridin-1(2H)-yl)methyl)-5-(2-(trifluoromethyl)pyridin-3-yl)benzamide], for which, in assay [1] (Homo sapiens, MV4-11, 168 h), the GI50 worked out at 0.14 µM. Also, the Ki at WDR5 (setting [2]) was 0.00012 µM.

Consider `Cc1cc([C@@H](NC(=O)c2cc(Cn3cccc(F)c3=N)cc(-c3cn(C)nc3C(F)(F)F)c2)C2CC2)ccc1F` [Example 351, (S)—N-(Cyclopropyl(4-fluoro-3-methylphenyl)methyl)-3-((3-fluoro-2-iminopyridin-1(2H)-yl)methyl)-5-(1-methyl-3-(trifluoromethyl)-1H-pyrazol-4-yl)benzamide], for which the GI50 in assay [1] (Homo sapiens, MV4-11, 168 h) was less than 0.1 µM. Further, the Ki at WDR5 (setting [2]) was less than 0.0001 µM.

For the compound `Cc1cc([C@@H](NC(=O)c2cc(Cn3ccccc3=N)cc(-c3cn(C)nc3C(F)(F)F)c2)C2CC2)ccc1F` [Example 352, (S)—N-(cyclopropyl(4-fluoro-3-methylphenyl)methyl)-3-((2-iminopyridin-1(2H)-yl)methyl)-5-(1-methyl-3-(trifluoromethyl)-1H-pyrazol-4-yl)benzamide], in assay [1] (Homo sapiens, MV4-11, 168 h), the GI50 was less than 0.1 µM. Further, the Ki at WDR5 (setting [2]) was less than 0.0001 µM.

In the case of `COc1cc(OC)cc(C(C)NC(=O)c2cc(Cn3ccn(C)c3=N)cc(-c3ccc(F)cc3C)n2)c1` (centres unmarked) [Example 355, N-(1-(3,5-Dimethoxyphenyl)ethyl)-6-(4-fluoro-2-methylphenyl)-4-((2-imino-3-methyl-2,3-dihydro-1H-imidazol-1-yl)methyl)picolinamide], the GI50 in assay [1] (Homo sapiens, MV4-11, 168 h) was found to be 1.19 µM. Also, the inhibitory constant (Ki) on WDR5 (setting [2]) stood at 0.00357 µM.

As to `Cc1cc([C@@H](NC(=O)c2cc(CN3CCOC3=N)cc(-c3cn(C)nc3C(F)(F)F)n2)C2CC2)ccc1F` [Example 361, (S)—N-(Cyclopropyl(4-fluoro-3-methylphenyl)methyl)-4-((2-iminooxazolidin-3-yl)methyl)-6-(1-methyl-3-(trifluoromethyl)-1H-pyrazol-4-yl)picolinamide], the GI50 in assay [1] (Homo sapiens, MV4-11, 168 h) came out at 0.94 µM. In addition, the Ki at WDR5 (setting [2]) was determined as 0.00077 µM.

Regarding `Cc1ccnc(C(NC(=O)c2cc(Cn3ccn(C)c3=N)cc(-c3ncccc3C(F)(F)F)c2)C2CC2)c1` (centres unmarked) [Example 364, N-(Cyclopropyl(4-methylpyridin-2-yl)methyl)-3-((2-imino-3-methyl-2,3-dihydro-1H-imidazol-1-yl)methyl)-5-(3-(trifluoromethyl)pyridin-2-yl)benzamide], the GI50 in assay [1] (Homo sapiens, MV4-11, 168 h) stood at 7.8 µM. In addition, on WDR5 (setting [2]), the inhibition constant Ki amounted to 0.0043 µM.

For `COc1cc(CNC(=O)c2cc(Cn3ccn(C)c3=N)nc(-c3ccc(F)cc3C)c2)cc(OC)c1` [Example 365, N-(3,5-Dimethoxybenzyl)-2-(4-fluoro-2-methylphenyl)-6-((2-imino-3-methyl-2,3-dihydro-1H-imidazol-1-yl)methyl)isonicotinamide], in assay [1] (Homo sapiens, MV4-11, 168 h), the GI50 turned out to be 6 µM. For the same compound, the Ki at WDR5 (setting [2]) was determined as 0.00055 µM.

Take `COc1ccnc(CNC(=O)c2ccc(F)c(Cn3ccn(C)c3=N)c2)c1` [Example 366, 4-Fluoro-3-((2-imino-3-methyl-2,3-dihydro-1H-imidazol-1-yl)methyl)-N-((4-methoxypyridin-2-yl)methyl)benzamide]: in assay [1] (Homo sapiens, MV4-11, 168 h), the GI50 amounted to 30 µM. Further, the Ki on WDR5 (setting [2]) amounted to 0.013 µM.

Take “N—((S)-Cyclopropyl(4-fluoro-3-methylphenyl)methyl)-2-ethoxy-5-((3-fluoro-2-iminopyridin-1(2H)-yl)methyl)-3-(1-methyl-3-(trifluoromethyl)-1,3-dihydro-2λ2-pyrazol-4-yl)benzamide [Example 348]”: the GI50 in assay [1] is less than 0.1 µM. The Ki at WDR5 is less than 0.0001 µM.
